Laboratory results from publication PMC9268305, “The Pharmacokinetics in Mice and Cell Uptake of Thymus Immunosuppressive Pentapeptide Using LC-MS/MS Analysis” (Molecules, 2022).
Entries after “also recorded” stand apart in the source; their conditions may differ. Where a SMILES comes first, the peptide text is derived from it. The star is where a group is joined. FITC = O=C1OC2(c3ccc(O)cc3Oc3cc(O)ccc32)c2ccc(NC(=S)*)cc21; Ahx = NCCCCCC(=O)O

Legend:
[1] = system: RBL-2H3 cells
Protocol: (§1) RBL-2H3 cells were obtained from the Cell Resource Center of Shanghai Institutes for Biological Sciences (Shanghai, China) and cultured in complete MEM containing 15% heat-inactivated FBS in a 37 °C incubator (5% CO2 and 95% air). […] To prepare final cell rinse samples, the cells were removed, the supernatant was rinsed with 1 mL of PBS five times, and 90 μL of the final cell rinse was collected and mixed with 10 μL of S4 solution (3 μg/mL) for chromatographic analysis directly. For the preparation of cell lysate samples, the cells (about 10^6 cells) were lysed with 130 μL of RIPA buffer for 30 min on ice, and 100 μL of the cell lysate was collected for sample pre-processing following Section 4.5.1.
(§2) RBL-2H3 cells were seeded in a 35 mm diameter dish at 8 × 10^5 cells and treated with 200 μg/mL TIPP for different durations (5 min, 10 min, 20 min, 30 min, 40 min, 1 h, 3 h, 6 h, 12 h, and 24 h). Then, the cells were subjected to the pre-processing procedures to prepare cell lysates, cell culture supernatants and the final cell rinse samples (Section 4.5.2). In addition, to study TIPP intracellular degradation, the cells were incubated with TIPP for 40 min, which was followed by incubation with TIPP-free medium for 10, 20, 30, 40, and 60 min, respectively. The cell lysates were then harvested at the above time points and pre-processed as presented in Section 4.5.2.

[2] = Sample-preparation stability/recovery of TIPP in water and murine plasma, with stabilizers; assay type: in vitro ADME, mouse
Protocol: TIPP stock solutions were separately diluted in TDW or murine plasma at a concentration of 1 μg/mL. Samples (10 μL) were subjected to protein precipitation either immediately or after 10 min incubation at room temperature (around 25 °C). A series of reagents were used for protein precipitation, including MeOH (300 μL) and 2% FA-ACN of different volumes (300, 140, 100, and 70 μL). After brief vortex, the samples were centrifuged at 15,000 rcf at 4 °C for 10 min, and the supernatants were collected for chromatographic analysis. In order to increase the signal intensity of highly water-soluble TIPP in organic solvents, a group of liquid–liquid extraction was carried out to separate the aqueous phase from the organic phase. After treating with 300 μL of 2% FA-ACN, the resulting supernatants (300 μL) were mixed with 500 μL of DCM for backwashing. […] After sample preparation, the processed samples were stored at −80 °C until analysis. Before sampling, the prepared sample was thawed, vortexed, and placed in the autosampler.
To choose the optimal stabilizer, the performance of DTT (30 mg/mL), L-AA (10 mg/mL), and PMSF (50 μg/mL) was evaluated. Plasma (90 μL) was mixed with each stabilizer (20 μL), and TIPP (10 μL, 5 μg/mL). The samples were subjected to protein precipitation either immediately or after 10 min incubation at room temperature. For protein precipitation, the samples added with 10 μL of S4 (3 μg/mL) were mixed with 300 μL of 2% FA-ACN and processed as discussed in Section 4.3.1. The aqueous layer was collected for chromatographic analysis. The recovery of TIPP with each stabilizer was determined. Moreover, the stabilizing effect of DTT was further evaluated with different concentrations (2.5, 5, 10, 20, 25, and 40 mg/mL), following the above protocol.

[3] = Elimination of TIPP after intravenous injection in mice (data not shown); assay type: in vivo
[4] = Stability of TIPP in processed murine plasma samples (LC-MS/MS validation); assay type: in vitro ADME, mouse; settings: compared to nominal concentration, mean ± SD, n = 3, in % (unit assumed)
Protocol: The stability of TIPP in plasma samples was investigated under different conditions. To evaluate autosampler stability, long-term stability, and short-term stability, up to three replicates of LQC and HQC plasma samples were evaluated when the samples were stored at room temperature for 4 h, at 4 °C for 24 h, and at −80 °C for 4 weeks, respectively. Freeze–thaw stability was also assessed in three cycles from −80 to 25 °C. Concentrations were determined using a TIPP calibrator of the respective validation day. Obtained results were compared to nominal concentrations to determine the stability.

[5] = system: RBL-2H3 cells; experiment: Uptake of TIPP in RBL-2H3 cells by LC-MS/MS (lysates, supernatants, final rinse)
Protocol: as §1, §2

[6] = mouse, in vivo, sc, 50 mg/kg
Protocol: (§3) Whole blood was collected from inner canthus into a tube containing ethylenediaminetetraacetic acid (EDTA) and centrifuged at 5000 rcf for 3 min. Subsequently, 10 μL of plasma samples were diluted with 90 μL TDW. The sample processing process is then executed, and the diluted samples were mixed with 10 μL of S4 solution (3 μg/mL) and 300 μL of 2% FA-ACN in a tube containing 20 μL of DTT solution (25 mg/mL). After centrifugation at 15,000 rcf for 10 min, 300 μL supernatant was transferred to a new tube containing 500 μL of DCM. The mixture was vortexed and centrifuged at 15,000 rcf for 10 min, and the aqueous layer was loaded into the LC-MS/MS system.
(§4) After 4 h fasting (ad libitum water intake), mice were subcutaneously injected with 50 mg/kg TIPP. At 0.5, 1, 2, 5, 10, 15, 20, and 40 min post administration (eight mice at each time points), blood samples were taken from an inner canthus into tubes containing Na2·EDTA and centrifuged at 5000 rcf for 10 min to obtain plasma. All samples were processed as described in Section 4.5.1 immediately.
(§5) PK parameters were calculated as mean ± standard deviation (SD). The Cmax and the time to reach Tmax were calculated based on the highest concentration and the corresponding time point, and t1/2 was calculated from C0 to C40. The area under the curve during the 40 min window (AUC0→40) and the extrapolated value (AUC0→∞) were calculated using the trapezoidal rule, and the elimination rate and concentration at 40 min were extrapolated from 40 min to infinity. The CL/F and Vd/F were calculated using the first-order one-compartment model.
(§6) Analyst® 1.5 software (AB SCIEX) was used for HPLC-MS/MS data processing. A non-compartmental model was employed to fit the PK of TIPP in mice plasma using DAS 2.0 software. […] Results were compared using t test or one-way analysis of variance, which was followed by Dunnett’s multiple comparisons test, with p < 0.05 considered significant.

[7] = PK of TIPP via subcutaneous injection in mice; settings: female, BALB/c, mouse, plasma, sc, 50 mg/kg; for MRT: mice, 50 mg/kg subcutaneous, mean ± SD, n = 8
Protocol: as §3, §4, §5, §6

[8] = system: RBL-2H3 cells; experiment: Confocal visualization of cellular localization of FITC-TIPP; assay type: cell-based, rat; settings: confocal microscope
Protocol: RBL-2H3 cells (4 × 10^4) were seeded in a 35 mm confocal dish and treated with 367 μg/mL FITC-TIPP for 0, 5, 10, 20, 30, 40, and 60 min, respectively. Then, the cells were fixed with 4% paraformaldehyde solution for 10 min and permeabilized with 0.1% Triton-100 for 5 min, which was followed by nuclear staining in a dark place with Hoechst 33342 for 5 min. Finally, the cells were washed, stained with DiI dye solution for 10 min, rinsed with PBS three times, and analyzed with a confocal microscope.

[9] = -SH group substituted with the -OH group; cited from earlier work
Excerpt: The pharmacokinetic properties in animals and its action mechanism also need to be studied using reliable, accurate, and sensitive methods in order to develop TIPP into a new drug. Short peptides can be analyzed using fluorescence labeling, immunoassay, and liquid chromatography-tandem mass spectrometry (LC-MS/MS). Although the visualization and quantification of fluorescently labeled peptides are widely used, there are still some drawbacks. One such flaw is that fluorescent labeling might change the structure of small molecules, resulting in the alteration of physical and chemi ...

C[C@H](N)C(=O)N[C@@H](CCC(=O)O)C(=O)N[C@@H](Cc1c[nH]c2ccccc12)C(=O)N[C@@H](CS)C(=O)N1CCC[C@H]1C(=O)O (H-AEWCP-OH)
Intracellular t1/2 of TIPP [1]: 5.596 min | Stability of TIPP in aqueous solution ([2]; 1 μg/mL in TDW, 10 min at room temperature (around 25 °C), protein precipitation with only organic reagents, LC-MS/MS intensity): remained stable | Stability of TIPP in plasma without stabilizer ([2]; 1 μg/mL in murine plasma, 10 min at room temperature (around 25 °C), protein precipitation with only organic reagents, LC-MS/MS intensity): intensity decreased significantly | Average recovery of TIPP in plasma with DTT as stabilizer ([2]; murine plasma, 20 mg/mL DTT, immediately or after 10 min at room temperature, LC-MS/MS, n = 3): higher than 95% | Elimination after intravenous injection [3]: rapid elimination | Stability in murine plasma, 4 weeks at −80 °C, HQC ([4]; HQC 4000 ng/mL, 4 weeks at −80 °C): 90.70 ± 0.12 | Stability in murine plasma, 4 h at room temperature, HQC ([4]; HQC 4000 ng/mL, 4 h at room temperature): 98.02 ± 0.04 | Stability in murine plasma, 24 h at 4 °C, HQC ([4]; HQC 4000 ng/mL, autosampler 24 h at 4 °C): 99.35 ± 0.84 | Stability in murine plasma, three freeze-thaw cycles, HQC ([4]; HQC 4000 ng/mL, three freeze-thaw cycles at −80–25 °C): 106.00 ± 0.16 | Stability in murine plasma, 4 weeks at −80 °C, LQC ([4]; LQC 50 ng/mL, 4 weeks at −80 °C): 90.70 ± 1.61 | Stability in murine plasma, 24 h at 4 °C, LQC ([4]; LQC 50 ng/mL, autosampler 24 h at 4 °C): 103.64 ± 2.00 | Stability in murine plasma, three freeze-thaw cycles, LQC ([4]; LQC 50 ng/mL, three freeze-thaw cycles at −80–25 °C): 94.23 ± 0.02 | Intracellular concentration of TIPP (cell lysate) at 20 min ([5]; 200 μg/mL TIPP, 20 min, cells rinsed five times with PBS, RIPA lysate, LC-MS/MS, n = 3): 24.57 ± 4.53 ng/mL | Concentration of TIPP in cell culture supernatant at 12 h ([5]; 200 μg/mL TIPP, MEM with 15% FBS, 37 °C, 12 h, LC-MS/MS, n = 3): below the detection limit | Concentration of TIPP in PBS rinse samples ([5]; 200 μg/mL TIPP, all PBS rinse samples, detection limit, LC-MS/MS): < 0.1 ng/mL | Residual TIPP in the final cell rinse PBS (in words) ([5]; 200 μg/mL TIPP, fifth PBS rinse, LC-MS/MS): No residual TIPP was detected | Intracellular concentration of TIPP (cell lysate), plateau ([5]; 200 μg/mL TIPP, from 30 min onwards, RIPA lysate, LC-MS/MS, n = 3): 38.62 ± 2.47 ng/mL | Intracellular TIPP about 30 min after substituting TIPP-free medium (in words) ([5]; 40 min with 200 μg/mL TIPP, then TIPP-free medium for 30 min, cell lysates): almost eliminated; also recorded: decreased to near LLOQ | CL/F (apparent clearance rate) [6]: 380 ± 87 L/h/kg | AUC(0-inf) [7]: 136 ng·h/mL | AUC(0-t) [7]: 133 ng·h/mL | Cmax [7]: 623 ± 67.1 ng/mL | Tmax [7]: 10 min | Vd/F [7]: 54.4 ± 20.9 L/kg | half-life [7]: 5.99 ± 1.82 min | level at 40 min [7]: ~20 ng/mL | MRT ([7]; MRT(0–t)): 11.3 min | MRT ([7]; MRT(0–∞)): 12.5 min

C[C@H](NC(=O)CCCCCNC(=S)Nc1ccc2c(c1)C(=O)OC21c2ccc(O)cc2Oc2cc(O)ccc21)C(=O)N[C@@H](CCC(=O)O)C(=O)N[C@@H](Cc1c[nH]c2ccccc12)C(=O)N[C@@H](CS)C(=O)N1CCC[C@H]1C(=O)O [FITC-TIPP] ({FITC-Ahx}-AEWCP-OH)
Co-localization of FITC-TIPP with RBL-2H3 cells ([8]; 367 μg/mL FITC-TIPP (same molar concentration as 200 μg/mL TIPP), fluorescence): co-localized with RBL-2H3 cells at 10 min | Fluorescent signal of FITC-TIPP in cells over time ([8]; 367 μg/mL FITC-TIPP, after 30 min, Hoechst 33342 and DiI staining): remained steady after 30 min with significant intranuclear enrichment

AEWSP [S4, analog of TIPP (AEWSP), used as the internal standard of the LC-MS/MS method]
Stability compared with TIPP [9]: significantly improved
